Experimental data reported in the NIST ThermoML archive (doi:10.1016/j.jct.2017.03.006).
Numbers after ± are expanded uncertainties.

Assay: xn = mol fraction of the nth substance listed
Conditions: Liquid, x1 = 1; for mass density: Vibrating tube method; for viscosity: Concentric cylinders viscometry

CCC(C)O (stereo unspecified) [butan-2-ol] + Cc1ccc(C)c(C)c1
Conditions | mass density [kg/m3] | viscosity [mPa·s]
273.15 K, 100 kPa | 822.3 ± 0.7 | –
273.15 K, 1000 kPa | 822.7 ± 0.7 | –
273.15 K, 2000 kPa | 823.4 ± 0.7 | –
273.15 K, 5000 kPa | 825.4 ± 0.7 | –
273.15 K, 10000 kPa | 828.7 ± 0.7 | –
273.15 K, 15000 kPa | 831.8 ± 0.7 | –
273.15 K, 20000 kPa | 834.7 ± 0.7 | –
273.15 K, 30000 kPa | 840.4 ± 0.8 | –
273.15 K, 40000 kPa | 845.7 ± 0.8 | –
273.15 K, 50000 kPa | 850.7 ± 0.8 | –
273.15 K, 60000 kPa | 855.4 ± 0.8 | –
273.15 K, 70000 kPa | 859.9 ± 0.8 | –
273.15 K, 80000 kPa | 864.3 ± 0.8 | –
273.15 K, 90000 kPa | 868.4 ± 0.9 | –
273.15 K, 100000 kPa | 872.4 ± 0.9 | –
273.15 K, 110000 kPa | 876.3 ± 0.9 | –
273.15 K, 120000 kPa | 879.9 ± 0.9 | –
273.15 K, 130000 kPa | 883.5 ± 0.9 | –
273.15 K, 140000 kPa | 887.2 ± 0.9 | –
293.15 K, 100 kPa | 806.3 ± 0.7 | 3.725 ± 0.076
293.15 K, 1000 kPa | 807 ± 0.7 | –
293.15 K, 2000 kPa | 807.8 ± 0.7 | –
293.15 K, 5000 kPa | 810 ± 0.7 | –
293.15 K, 10000 kPa | 813.6 ± 0.7 | –
293.15 K, 15000 kPa | 817 ± 0.7 | –
293.15 K, 20000 kPa | 820.2 ± 0.7 | –
293.15 K, 30000 kPa | 826.5 ± 0.8 | –
293.15 K, 40000 kPa | 832.3 ± 0.8 | –
293.15 K, 50000 kPa | 837.7 ± 0.8 | –
293.15 K, 60000 kPa | 842.8 ± 0.8 | –
293.15 K, 70000 kPa | 847.7 ± 0.8 | –
293.15 K, 80000 kPa | 852.3 ± 0.9 | –
293.15 K, 90000 kPa | 856.7 ± 0.9 | –
293.15 K, 100000 kPa | 860.9 ± 0.9 | –
293.15 K, 110000 kPa | 865 ± 0.9 | –
293.15 K, 120000 kPa | 868.8 ± 1 | –
293.15 K, 130000 kPa | 872.7 ± 1 | –
293.15 K, 140000 kPa | 876.3 ± 1 | –
303.15 K, 100 kPa | – | 2.555 ± 0.053
313.15 K, 100 kPa | 789.4 ± 0.7 | 1.814 ± 0.038
313.15 K, 1000 kPa | 790.1 ± 0.7 | –
313.15 K, 2000 kPa | 791 ± 0.7 | –
313.15 K, 5000 kPa | 793.5 ± 0.7 | –
313.15 K, 10000 kPa | 797.5 ± 0.7 | –
313.15 K, 15000 kPa | 801.4 ± 0.7 | –
313.15 K, 20000 kPa | 805.1 ± 0.7 | –
313.15 K, 30000 kPa | 811.9 ± 0.8 | –
313.15 K, 40000 kPa | 818.3 ± 0.8 | –
313.15 K, 50000 kPa | 824.1 ± 0.8 | –
313.15 K, 60000 kPa | 829.6 ± 0.8 | –
313.15 K, 70000 kPa | 835 ± 0.9 | –
313.15 K, 80000 kPa | 839.9 ± 0.9 | –
313.15 K, 90000 kPa | 844.6 ± 0.9 | –
313.15 K, 100000 kPa | 849 ± 0.9 | –
313.15 K, 110000 kPa | 853.3 ± 1 | –
313.15 K, 120000 kPa | 857.5 ± 1 | –
313.15 K, 130000 kPa | 861.5 ± 1 | –
313.15 K, 140000 kPa | 865.4 ± 1 | –
323.15 K, 100 kPa | – | 1.331 ± 0.028
333.15 K, 100 kPa | 770.7 ± 0.7 | 1.007 ± 0.021
333.15 K, 1000 kPa | 771.6 ± 0.7 | –
333.15 K, 2000 kPa | 772.6 ± 0.7 | –
333.15 K, 5000 kPa | 775.5 ± 0.7 | –
333.15 K, 10000 kPa | 780.1 ± 0.7 | –
333.15 K, 15000 kPa | 784.4 ± 0.7 | –
333.15 K, 20000 kPa | 788.6 ± 0.7 | –
333.15 K, 30000 kPa | 796.2 ± 0.8 | –
333.15 K, 40000 kPa | 803.2 ± 0.8 | –
333.15 K, 50000 kPa | 809.6 ± 0.8 | –
333.15 K, 60000 kPa | 815.7 ± 0.9 | –
333.15 K, 70000 kPa | 821.4 ± 0.9 | –
333.15 K, 80000 kPa | 826.7 ± 0.9 | –
333.15 K, 90000 kPa | 831.8 ± 0.9 | –
333.15 K, 100000 kPa | 836.6 ± 1 | –
333.15 K, 110000 kPa | 841.2 ± 1 | –
333.15 K, 120000 kPa | 845.5 ± 1 | –
333.15 K, 130000 kPa | 849.8 ± 1.1 | –
333.15 K, 140000 kPa | 853.9 ± 1.1 | –
